Measured values reported in article PMC4527083 (European journal of pharmacology, 2014).
pIC50: −log10 of the molar value.

Target: HERG potassium channel (human ether-a-go-go related gene) (Homo sapiens, UniProt Q12809)
Experiment: cell-based

Chain of HERG potassium channel (human ether-a-go-go related gene) (Q12809 whole entry): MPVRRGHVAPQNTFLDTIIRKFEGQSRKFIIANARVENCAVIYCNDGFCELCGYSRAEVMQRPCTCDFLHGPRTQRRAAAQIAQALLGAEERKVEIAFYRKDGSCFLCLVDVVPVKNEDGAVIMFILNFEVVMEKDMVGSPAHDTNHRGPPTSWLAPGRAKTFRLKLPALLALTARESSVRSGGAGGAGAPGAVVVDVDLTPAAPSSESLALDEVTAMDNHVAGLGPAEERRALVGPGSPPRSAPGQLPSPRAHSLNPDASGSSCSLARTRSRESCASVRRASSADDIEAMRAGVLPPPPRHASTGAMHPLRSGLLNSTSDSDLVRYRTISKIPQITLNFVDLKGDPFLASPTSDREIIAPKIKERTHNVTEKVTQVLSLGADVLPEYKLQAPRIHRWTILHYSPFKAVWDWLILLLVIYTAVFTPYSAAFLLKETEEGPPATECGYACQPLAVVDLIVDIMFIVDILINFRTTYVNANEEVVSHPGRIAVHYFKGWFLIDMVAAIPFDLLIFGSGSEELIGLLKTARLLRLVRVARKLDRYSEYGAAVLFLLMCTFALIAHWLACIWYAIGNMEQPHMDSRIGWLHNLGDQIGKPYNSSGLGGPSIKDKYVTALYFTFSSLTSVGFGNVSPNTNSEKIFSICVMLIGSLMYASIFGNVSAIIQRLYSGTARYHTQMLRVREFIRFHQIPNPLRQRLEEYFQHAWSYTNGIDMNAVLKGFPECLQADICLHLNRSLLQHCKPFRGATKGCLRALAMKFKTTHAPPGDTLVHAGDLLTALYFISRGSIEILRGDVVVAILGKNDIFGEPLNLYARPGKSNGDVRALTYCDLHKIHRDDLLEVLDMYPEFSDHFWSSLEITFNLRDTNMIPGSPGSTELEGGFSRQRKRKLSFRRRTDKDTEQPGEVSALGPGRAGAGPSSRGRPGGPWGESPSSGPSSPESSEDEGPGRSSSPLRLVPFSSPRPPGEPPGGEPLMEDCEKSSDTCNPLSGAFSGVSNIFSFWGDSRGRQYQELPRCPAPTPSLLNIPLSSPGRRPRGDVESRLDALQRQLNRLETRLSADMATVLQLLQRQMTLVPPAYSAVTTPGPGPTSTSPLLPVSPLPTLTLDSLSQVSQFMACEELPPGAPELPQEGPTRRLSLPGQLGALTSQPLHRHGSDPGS

Question: `CCCCCCCCCCCC[N+](C)(C)CCOc1ccccc1` [DB, domiphen bromide] was tested. Which pIC50 did it give?
Answer: Its pIC50 is 8.05.
